Test results taken from patent US20070092577A1, “Dietary calcium for reducing the production of reactive oxygen species” (University of Tennessee Research Foundation, priority 2005, published 2007).

Assays:
[1] = tested on: Mitochondrial potential in cultured wild-type 3T3-L1 adipocytes; experiment: Mitochondrial membrane potential (JC-1); type: cell-based, murine; conditions: H2O2 100 nmol/L, 48 hours
Protocol: 3T3-L1 preadipocytes were incubated at a density of 8000 cells/cm^2 (10 cm^2 dish) and grown in Dulbecco's modified Eagle's medium (DMEM) containing 10% FBS and antibiotics (adipocyte medium) at 37° C. in 5% CO2 in air. Confluent preadipocytes were induced to differentiate with a standard differentiation medium consisting of DMEM-F 10 (1:1, vol/vol) medium supplemented with 1% FBS, 1 μM dexamethasone, IBMX (0.5 mM) and antibiotics (1% Penicillin-Streptomycin). Preadipocytes were maintained in this differentiation medium for 3 days and subsequently cultured in adipocyte medium. Cultures were re-fed every 2-3 days to allow 90% of cells to reach full differentiation before conducting chemical treatment. Chemicals were freshly diluted in adipocyte medium before treatment. […] Cell viability was measured via trypan blue exclusion.
Mitochondrial membrane potential was analyzed fluorometrically with a lipophilic cationic dye JC-1 (5,5′,6,6′-tetrachloro-1,1′,3,3′-tetraethylbenzimidazol carbocyanine iodide) using a mitochondrial potential detection kit (Biocarta, San Diego, Calif.). Mitochondrial potential was determined as the ratio of red fluorescence (excitation 550 nm, emission 600 mn) and green fluorescence (excitation 485 nm, emission 535 nm) using a fluorescence microplate reader.

IL-8 = IL-8 expression in differentiated Zen-bio human adipocytes; type: cell-based; conditions: 10 nmol/L, 48 h; p<0.001
Protocol: (§1) Human pre-adipocytes used in this study were supplied by Zen-Bio (Research Triangle, N.C.). […] The cells are isolated from the stromal vascular fraction of human subcutaneous adipose tissue and differentiated in vitro as follows: […] Preadipocytes were maintained in this differentiation medium for 3 days and subsequently cultured in adipocyte medium in which BRL49653 and MIX were omitted. Cultures were re-fed every 2-3 days till fully differentiated. Cells were incubated in serum free medium overnight before chemical treatment. Chemicals were freshly diluted in adipocyte medium before treatment. […] Cell viability was measured via trypan blue exclusion. Adipocyte and muscle 18s, TNFα, IL-6, IL-8, IL-15 and adiponectin were quantitatively measured using a smart cycler real-time PCR system (Cepheid, Sunnyvale, Calif.) with a TaqMan 1000 Core Reagent Kit (Applied Biosystems, Branchburg, N.J.). […] Reactions of quantitative RT-PCR for standards and unknown samples were also performed according to the instructions of Smart Cycler System (Cepheid, Sunnyvale, Calif.) and TaqMan Real Time PCR Core Kit (Applied Biosystems, Branchburg, N.J.). The mRNA quantitation for each sample was further normalized using the corresponding 18s quantitation.

adiponectin = experiment: Adiponectin expression in differentiated Zen-bio human adipocytes; type: cell-based; conditions: 10 nmol/L 1α, 25-(OH)2-D3 or 10 μmol/L nifedipine, 48 h; p=0.377
Protocol: as §1

CD14 = CD14 expression in human adipocytes; type: cell-based; conditions: calcitriol 10 nmol/L, 48 hours; p=0.008
Description: Cell culture: Human preadipocytes used in this study were supplied by Zen-Bio (Research Triangle, N.C.). Preadipocytes were inoculated in DMEM/Ham's F-10 medium (DMEM-F10) (1:1, vol/vol) containing 10% FBS, 15 mmol/L HEPES, and antibiotics at a density of 30,000 cells/cm^2. Confluent monolayers of preadipocytes were induced to differentiate with a standard differentiation medium consisting of DMEM-F 10 (1:1, vol/vol) medium supplemented with 15 mmol/L HEPES, 3% FBS, 33 μmol/L biotin, 17 μmol/L pantothenate, 100 nmol/L insulin, […] methylisobutylxanthine, 1 μmol/L dexamethasone, 1 μmol/L BRL49653, and antibiotics. […]
(§2) Cells were washed with fresh adipocyte medium, re-fed with medium containing the indicated treatments, and incubated at 37° C. in 5% CO2 for 48 hours before analysis. Cell viability was measured via trypan blue exclusion.
(§3) Adipocyte and muscle 18s, CD14, TNFα, MIP, M-CSF, IL-6 and MCP-1 were quantitatively measured using a Smart Cycler Real Time PCR System (Cepheid, Sunnyvale, Calif.) with a TaqMan 1000 Core Reagent Kit (Applied Biosystems, Branchburg, N.J.). […] Reactions of quantitative RT-PCR for standards and unknown samples were also performed according to the instructions of Smart Cycler System (Cepheid, Sunnyvale, Calif.) and TaqMan Real Time PCR Core Kit (Applied Biosystems, Branchburg, N.J.). […]

MCP-1 = MCP-1 expression in 3T3-L1 adipocytes; type: cell-based, mouse; conditions: calcitriol 10 nmol/L, 48 hours
Protocol: RAW 264 macrophages and 3T3-L1 preadipocytes (American Type Culture Collection) were incubated at a density of 8000 cells/cm2 (10 cm2 dish) and grown in Dulbecco's modified Eagle's medium (DMEM) containing 10% FBS and antibiotics (adipocyte medium) at 37° C. in 5% CO2 in air. Confluent 3T3-L1 preadipocytes were induced to differentiate with a standard differentiation medium consisting of DMEM-F10 (1:1, vol/vol) medium supplemented with 1% FBS, 1 μM dexamethasone, IBMX (0.5 mM) and antibiotics (1% Penicillin-Streptomycin). Preadipocytes were maintained in this differentiation medium for 3 days and subsequently cultured in adipocyte medium. […]
as §2, §3

Row | Compound | increase of mitochondrial potential [1] [%] | stimulation of IL-8 expression (IL-8) [%] | effect on adiponectin expression (adiponectin) | increase of CD14 expression (CD14) [%] | effect on MCP-1 expression (MCP-1)
1 | OO [H2O2, hydrogen peroxide] | 72 | – | – | – | –
2 | C=C1/C(=C\C=C2/CCC[C@]3(C)[C@@H]([C@H](C)CCCC(C)(C)O)CC[C@@H]23)C[C@@H](O)C[C@@H]1O [calcitriol, 1, 25-Dihydroxyvitamin D] | – | 49 | no effect | 33 | markedly stimulate
